Experimental findings from patent US20150306110A1, “COMPOSITIONS AND METHODS FOR TREATMENT OF INFLAMMATION AND HYPERKERATOTIC LESIONS” (Novelix Pharmaceuticals, Inc., priority 2008, published 2015) are described below.

In one experiment the test system is A549. As to the kind of experiment: Cell growth/survival, A549 lung adenocarcinoma cells. Type of experiment: cell-based. The following applies: Homo sapiens, TP53 neg. Here is the method:
(§1) Melanoma cell lines used in this study were maintained in Dulbecco's modified Eagle medium (DMEM with 4500 mg/l glucose) supplemented with 10% FCS from Gibco BRL (Life Technologies, Berlin, Germany). The canine mastocytoma cell line C2 (DeVinney et al, Am. J. Respir. Cell Mol. Biol. 3:413-20, 1990) was used in this study, along with additional human cell lines: RD-ES and TC-71 (human Ewing's sarcoma), SAOS2 (human osteosarcoma), HT-1080 (human fibrosarcoma), Caco-2 (human colon adenocarcinoma), A549 (human lung adenocarcinoma), Hep-G2 and Hep-3B (human hepatocellular carcinoma), SK-N-DZ and SK-N-FI (human embryonal neuroblastoma), HTB9 (human bladder cancer), MDA-468 and MCF-7 (human breast cancer) and SW872 liposarcoma. All breast cancer cells were routinely cultured in DMEM/F-12 or in DMEM alone supplemented with 10% FCS at 37° C. in a humidified 5% CO2 atmosphere. RD-ES and TC-71 sarcoma cell lines were maintained in RPMI 1640 (Biochrom KG, Berlin, Germany) containing 10% FCS at 37° C. in a humidified 5% CO2 atmosphere. […]
(§2) Briefly, cells were maintained in standard medium, harvested, and plated at equal densities (750,000 cells in 5 cm tissue culture dishes). […] For the assessment of cell growth, the number of surviving cells was determined using an automated cell counter from Beckman Coulter GmbH (Krefeld, Germany). […]

For another experiment, the system named is Hep-3B. Put plainly: Cell growth/survival, Hep-3B hepatocellular carcinoma cells. Type of experiment: cell-based. The following applies: Homo sapiens, Hep3B, TP53 null. How it is done:
as §1, §2

Another experiment concerns TC-71 (Ewing's sarcoma). As to the kind of experiment: Cell growth/survival, TC-71 Ewing's sarcoma cells. It is filed as cell-based. The following applies: Homo sapiens, TP53 mut. How it is done:
as §1, §2

The test system of another experiment is MDA-MB-468. Put plainly: Cell growth/survival, MDA-MB-468 breast cancer cells. Type of experiment: cell-based. The conditions noted are these: Homo sapiens, TP53 mut. How it is done:
as §1, §2

A further experiment relates to SW872 (liposarcoma). Put plainly: Cell growth/survival, SW872 liposarcoma cells. It is filed as cell-based. The following applies: Homo sapiens, TP53 mut. Here is the method: as §1, §2
In another experiment the test system is RD-ES (Ewing's sarcoma). Put plainly: Cell growth/survival, RD-ES Ewing's sarcoma cells. Type of experiment: cell-based. The conditions noted are these: Homo sapiens, TP53 mut. How it is done: as §1, §2
The subject of the next experiment is SK-N-FI. As to the kind of experiment: Cell growth/survival, SK-N-FI neuronal cancer cells. The conditions noted are these: Homo sapiens, TP53 mut. It is filed as cell-based. Here is the method:
as §1, §2

Another experiment relates to Soft tissue sarcoma. As to the kind of experiment: Intra-tumoral NVX-207 in canine patient, soft tissue sarcoma. The following applies: Patient #1, 11, F; 48 treatment cycles.
The next experiment has as its system Osteosarcoma-D17. Put plainly: Cell growth/survival, canine osteosarcoma D17 cells. It is filed as cell-based. The following applies: Canis lupus familiaris.
In a further experiment the test system is human fibroblasts. As to the kind of experiment: Survival of fibroblasts at 80% and 30% confluency. It is filed as cell-based. The following applies: 2.5 μM; for Mean survival, percentage of control-treated cells: fibroblasts, n=3. How it is done: (§3) All cells were treated with 2.5 μM NVX-207. Percentage (means±S.E., n=3) of control-treated cells are given. […] Mean survival in NVX-207 treated fibroblasts at 80% confluency was 92% (S.E.=3.8) versus 3.8% mean survival (S.E.=0.4) at 30% confluency. […] HUVECs, keratinocytes and fibroblast cells were obtained from Lonza GmbH (Wuppertal, Germany) and cultivated according to the manufacturer's instructions.
(§4) Human umbilical vein endothelial cells (HUVEC), keratinocytes and fibroblast cells were obtained from Lonza GmbH (Wuppertal, Germany) and cultivated according to the manufacturer's instructions. […] The IC50 value of betulinic acid in human keratinocytes was recently determined to be ˜5.0 μg/ml (Tino Galgon al., Exp Dermatol. 14:736-43, 2005), while the IC50 of NVX-207 is ˜0.7 µg/ml. […] Mean survival in NVX-207 treated fibroblasts at 80% confluency was 92% (S.E.=3.8) versus 3.8% mean survival (S.E.=0.4) at 30% confluency. […] Under normal physiological conditions, the endothelium, as well as skin fibroblasts and skin keratinocytes, show relatively low turn-over and limited cell divisions to maintain tissue integrity.
(§5) Keratinocytes at high confluence (e.g., 80%) mimic normal physiological conditions in which these cells divide more slowly (fewer cell divisions per unit of time). In contrast, keratinocytes in psoriatic lesions divide more rapidly, as do keratinocytes cultured at lower confluency (e.g., 30%). Thus, the 30% confluency conditions were considered a model for psoriasis whereas the behavior of 80% confluent cells more closely reflects the conditions observed in normal skin.

Another experiment has as its system human keratinocytes. As to the kind of experiment: Survival / anti-proliferative activity in keratinocytes. Type of experiment: cell-based. The following applies: for Mean survival, percentage of control-treated cells: n=3. Here is the method: as §3, §4, §5
Experiment [1] relates to melanoma, liposarcoma, colon-and lung cancer cells. As to the kind of experiment: Cell growth in select cancer cell lines, NVX-207 compared to betulinic acid (FIGS. 1A-D). The following applies: various cancer and non-cancer cells, human and animal cell lines. It is filed as cell-based. How it is done:
FIGS. 1A-D show cell survival in select human cancer cell lines: 518A2 melanoma (FIG. 1A), SW872 liposarcoma (FIG. 1B), Caco-2 colon carcinoma (FIG. 1C) and A549 lung carcinoma (FIG. 1D). Cell survival as a percentage of untreated controls (y-axis) in response to NVX-207 (grey lines) or betulinic acid (black lines) in μg/ml (x-axis) are shown.
as §1, with “liposarcoma.” for “liposarcoma. All breast cancer cells were routinely cultured in DMEM/F-12 or in DMEM alone supplemented with 10% FCS at 37° C. in a humidified 5% CO2 atmosphere. RD-ES and TC-71 sarcoma cell lines were maintained in RPMI 1640 (Biochrom KG, Berlin, Germany) containing 10% FCS at 37° C. in a humidified 5% CO2 atmosphere.”
as §2

Another experiment deals with MCF-7. Put plainly: Cell growth/survival, MCF-7 breast cancer cells. It is filed as cell-based. The following applies: Homo sapiens, MCF7, TP53 neg. How it is done:
as §1, §2

pIC50: −log10 of the molar value. In brackets after ≈: the same amount, converted by molar mass.

As for `C=C(C)[C@@H]1CC[C@]2(C(=O)OCC(N)(CO)CO)CC[C@]3(C)[C@H](CC[C@@H]4[C@@]5(C)CC[C@H](OC(C)=O)C(C)(C)[C@@H]5CC[C@]43C)[C@@H]12` [NVX-207, 3-O-acetylbetulinic acid-2-amino-3-hydroxy-2-hydroxymethylpropyl ester], the pIC50 was 5.60 in the experiment on A549; 5.42 with Hep-3B; 5.26 with TC-71 (Ewing's sarcoma); 5.44 in the experiment with MDA-MB-468; 5.74 in the experiment with SW872 (liposarcoma); 5.28 with RD-ES (Ewing's sarcoma). In addition, the pIC50 is 5.43 in the experiment on SK-N-FI, 5.42 in the experiment on Osteosarcoma-D17 and 5.40 in the experiment with MCF-7. Also, in the experiment on Soft tissue sarcoma, the “Overall Survival” value came to 15 months. For the same compound, the “Mean survival, percentage of control-treated cells” value in the experiment on human fibroblasts (30% confluency) was determined as 3.8%; in the experiment on human fibroblasts (80% confluency), 92%; in the experiment with human keratinocytes (keratinocytes, 30% confluency, 2.5 μM), 17%; with human keratinocytes (keratinocytes, 80% confluency, 2.5 μM), 92.7%. Besides, the “More active against proliferating cells (30% vs 80% confluency)” value in the experiment with human fibroblasts (human fibroblasts) was “over 20 fold”; in the experiment on human keratinocytes (keratinocytes, 2.5 μM) it was around 6 fold. The compound further yielded an IC50 with human keratinocytes (Homo sapiens, Keratinocyte) of around 0.7 µg/mL (≈ 1.16 µM). Further, the “IC50 lower compared to betulinic acid on a molar basis” value in the experiment with human keratinocytes (human keratinocytes) is around 10 fold. Besides, the “Efficacy on a molar basis in promoting cell death compared to betulinic acid” value in experiment [1] is given as “up to 5 fold”.

Usually pIC50 stands for the negative decadic logarithm of the IC50, by convention in mol/L. Lower therefore signals a large IC50. Broadly, the IC50 is the midpoint of a concentration-inhibition curve. Read a low IC50 as greater potency in that assay.
